Measured values from the supplement of paper PMC10627819.

Legend:
S. aureus DSM 20231 [1] = assay: Bliss interaction score (quartile over a dose matrix) (fitness difference); higher = more antagonism (negative = synergy)
Summary of the method: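 Each OD595 reading at entry into stationary phase was scaled to the robust mean of the untreated wells on its plate, with a ceiling of 1. These ratios define fitness, and single-drug fitness was inferred from combinations. The Bliss score compares observed fitness with the product-based expectation and is reported as quartiles across all replicate types, technical, biological and donor/recipient.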

S. aureus DSM 20231 [2] = assay: fitness (endpoint OD595 vs no drug) (fraction); higher = more growth
Summary of the method: (§1)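 In 384-well plates at 37 °C, cultures began at OD595 0.01 in 30 µl, with 55 µl used for S. pneumoniae. OD595 readings every 30 min for 14 h were corrected by the first reading. Fitness divides the stationary-phase transition optical density by the robust mean of no-drug control wells. The result is capped at 1.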

S. aureus Newman = assay: as above
Summary of the method: as §1

S. pneumoniae D39V = assay: as above
Summary of the method: as §1

B. subtilis 168 = assay: as above
Summary of the method: as §1
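For Bliss interaction score (quartile over a dose matrix) in this document: first quartile when negative (synergy) and third quartile when positive (antagonism).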
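For fitness (endpoint OD595 vs no drug) in this document: OD595 on entry to stationary phase over no-drug wells; at most 1.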

COCCOC(=O)C1=C(C)NC(C)=C(C(=O)OC/C=C/c2ccccc2)C1c1cccc([N+](=O)[O-])c1 (stereo unspecified) [Cilnidipine] + CCC(C)C1C(=O)NC(=C)C(=O)NC(C(=O)NC(CSCC(C(=O)N1)NC(=O)/C(=C/C)/NC(=O)C(C(C)CC)N)C(=O)NC2C(SCC(NC(=O)CNC(=O)C3CCCN3C2=O)C(=O)NC(CCCCN)C(=O)NC4C(SCC(NC(=O)CNC(=O)C(NC(=O)C(NC(=O)C(NC(=O)CNC4=O)C)CC(C)C)CCSC)C(=O)NC(CC(=O)N)C(=O)NC(CCSC)C(=O)NC(CCCCN)C(=O)NC5C(SCC6C(=O)NC(C(=O)NC(CSC(C(C(=O)N6)NC(=O)C(NC5=O)C)C)C(=O)NC(CO)C(=O)NC(C(C)CC)C(=O)NC(CC7=CN=CN7)C(=O)NC(C(C)C)C(=O)NC(=C)C(=O)NC(CCCCN)C(=O)O)CC8=CN=CN8)C)C)C)CC(C)C [Nisin]
Settings	Bliss interaction score
S. aureus DSM 20231 [1], main component drawn	0.156

COCCOC(=O)C1=C(C)NC(C)=C(C(=O)OC/C=C/c2ccccc2)C1c1cccc([N+](=O)[O-])c1 (stereo unspecified) [Cilnidipine] + COc1cc(Cc2cnc(N)nc2N)cc(OC)c1OC [Trimethoprim]
Settings	Bliss interaction score
S. aureus DSM 20231 [1]	-0.299

Cn1c(=O)c2c(ncn2C)n(C)c1=O [Caffeine] + CC[C@H]1OC(=O)[C@H](C)C(=O)[C@H](C)[C@@H](O[C@@H]2O[C@H](C)C[C@H](N(C)C)[C@H]2O)[C@](C)(OC)C[C@@H](C)C(=O)[C@H](C)[C@H]2N(CCCCn3cnc(-c4cccnc4)c3)C(=O)O[C@]12C [Telithromycin]
Settings	Bliss interaction score
S. aureus DSM 20231 [1]	-0.372

CC(=O)Oc1ccccc1C(=O)O [Acetylsalicylicacid] + CN(Cc1cnc2nc(N)nc(N)c2n1)c1ccc(C(=O)N[C@@H](CCC(=O)O)C(=O)O)cc1 [Methotrexate]
Settings	Bliss interaction score
S. aureus DSM 20231 [1]	-0.416

CO/N=C(\C(=O)N[C@@H]1C(=O)N2C(C(=O)O)=C(COC(C)=O)CS[C@H]12)c1csc(N)n1 [Cefotaxime] + Nc1ccc(O)c(C(=O)O)c1 [Mesalamine]
Settings	Bliss interaction score
S. aureus DSM 20231 [1]	0.16

CC(=O)Oc1ccccc1C(=O)O [Acetylsalicylicacid] + CCN(CC)C(=O)/C(C#N)=C/c1cc(O)c(O)c([N+](=O)[O-])c1 [Entacapone]
Settings	Bliss interaction score
S. aureus DSM 20231 [1]	0.143

CC(C)c1c(C(=O)Nc2ccccc2)c(-c2ccccc2)c(-c2ccc(F)cc2)n1CC[C@@H](O)C[C@@H](O)CC(=O)O [Atorvastatin] + O=C(O[C@@H]1Cc2c(O)cc(O)cc2O[C@@H]1c1cc(O)c(O)c(O)c1)c1cc(O)c(O)c(O)c1 [EGCG]
Settings	Bliss interaction score
S. aureus DSM 20231 [1]	-0.118

CC(=O)Oc1ccccc1C(=O)O [Acetylsalicylicacid] + CC(C)c1c(C(=O)Nc2ccccc2)c(-c2ccccc2)c(-c2ccc(F)cc2)n1CC[C@@H](O)C[C@@H](O)CC(=O)O [Atorvastatin]
Settings	Bliss interaction score
S. aureus DSM 20231 [1]	0.213

CN(C)[C@@H]1C(O)=C(C(N)=O)C(=O)[C@@]2(O)C(O)=C3C(=O)c4c(O)ccc(Cl)c4[C@@](C)(O)[C@H]3C[C@@H]12 [Clortetracycline] + Cc1c(C)c2c(c(C)c1O)CCC(C)(COc1ccc(CC3SC(=O)NC3=O)cc1)O2 [Troglitazone]
Settings	Bliss interaction score
S. aureus DSM 20231 [1]	-0.137

COc1cccc2c1C(=O)c1c(O)c3c(c(O)c1C2=O)C[C@@](O)(C(=O)CO)C[C@@H]3O[C@H]1C[C@H](N)[C@H](O)[C@H](C)O1 [Doxorubicin] + CO/N=C(\C(=O)N[C@@H]1C(=O)N2C(C(=O)[O-])=C(C[N+]3(C)CCCC3)CS[C@H]12)c1csc(N)n1 [Cefepime]
fitness
Settings	first compound 0.25 µg/mL	first compound 0.5 µg/mL	first compound 0.625 µg/mL	first compound 1 µg/mL	first compound 1.25 µg/mL	first compound 2.5 µg/mL
S. aureus DSM 20231 [2], partner 0.125 µg/mL	–	–	0.861	–	0.828	0.721
S. aureus DSM 20231 [2], partner 0.25 µg/mL	–	–	0.826	–	0.814	0.656
S. aureus DSM 20231 [2], partner 0.5 µg/mL	–	–	0.741	–	0.71	0.62
S. aureus Newman, partner 0.125 µg/mL	–	–	0.783	–	0.773	0.716
S. aureus Newman, partner 0.25 µg/mL	–	–	0.762	–	0.744	0.696
S. aureus Newman, partner 0.5 µg/mL	–	–	0.659	–	0.732	0.683
S. pneumoniae D39V, partner 0.007 µg/mL	0.937	0.949	–	0.957	–	–
S. pneumoniae D39V, partner 0.0078 µg/mL	≥ 1	≥ 1	–	0.938	–	–
S. pneumoniae D39V, partner 0.014 µg/mL	0.912	0.935	–	0.942	–	–
S. pneumoniae D39V, partner 0.0155 µg/mL	0.974	0.994	–	0.917	–	–
S. pneumoniae D39V, partner 0.028 µg/mL	0.783	0.846	–	0.825	–	–

COc1cccc2c1C(=O)c1c(O)c3c(c(O)c1C2=O)C[C@@](O)(C(=O)CO)C[C@@H]3O[C@H]1C[C@H](N)[C@H](O)[C@H](C)O1 [Doxorubicin] + CO[C@@]12[C@H](COC(N)=O)C3=C(C(=O)C(C)=C(N)C3=O)N1C[C@@H]1N[C@@H]12 [Mitomycin C]
fitness
Settings	first compound 0.25 µg/mL	first compound 0.5 µg/mL	first compound 0.625 µg/mL	first compound 1 µg/mL	first compound 1.25 µg/mL	first compound 2.5 µg/mL
S. aureus DSM 20231 [2], partner 0.0156 µg/mL	–	–	0.699	–	0.697	0.668
S. aureus DSM 20231 [2], partner 0.0312 µg/mL	–	–	0.659	–	0.641	0.61
S. aureus DSM 20231 [2], partner 0.0625 µg/mL	–	–	0.52	–	0.496	0.473
S. aureus Newman, partner 0.0156 µg/mL	–	–	0.669	–	0.692	0.672
S. aureus Newman, partner 0.0312 µg/mL	–	–	0.63	–	0.699	0.599
S. aureus Newman, partner 0.0625 µg/mL	–	–	0.531	–	0.507	0.408
S. pneumoniae D39V, partner 0.001075 µg/mL	0.834	0.842	–	0.81	–	–
S. pneumoniae D39V, partner 0.002 µg/mL	0.836	0.822	–	0.696	–	–
S. pneumoniae D39V, partner 0.00215 µg/mL	0.838	0.848	–	0.783	–	–
S. pneumoniae D39V, partner 0.004 µg/mL	0.707	0.664	–	0.632	–	–
S. pneumoniae D39V, partner 0.0043 µg/mL	0.681	0.671	–	0.58	–	–
S. pneumoniae D39V, partner 0.008 µg/mL	0.458	0.435	–	0.404	–	–

CN(C)[C@@H]1C(O)=C(C(N)=O)C(=O)[C@@]2(O)C(O)=C3C(=O)c4c(O)ccc(Cl)c4[C@@](C)(O)[C@H]3C[C@@H]12 [Chlortetracycline] + COc1cccc2c1C(=O)c1c(O)c3c(c(O)c1C2=O)C[C@@](O)(C(=O)CO)C[C@@H]3O[C@H]1C[C@H](N)[C@H](O)[C@H](C)O1 [Doxorubicin]
Settings	fitness
B. subtilis 168, first compound 0.0475 µg/mL, partner 0.625 µg/mL	0.895
B. subtilis 168, first compound 0.0475 µg/mL, partner 1.25 µg/mL	0.845
B. subtilis 168, first compound 0.0475 µg/mL, partner 2.5 µg/mL	0.717
B. subtilis 168, first compound 0.095 µg/mL, partner 0.625 µg/mL	0.789
B. subtilis 168, first compound 0.095 µg/mL, partner 1.25 µg/mL	0.775
B. subtilis 168, first compound 0.095 µg/mL, partner 2.5 µg/mL	0.56
B. subtilis 168, first compound 0.19 µg/mL, partner 0.625 µg/mL	0.44
B. subtilis 168, first compound 0.19 µg/mL, partner 1.25 µg/mL	0.404
B. subtilis 168, first compound 0.19 µg/mL, partner 2.5 µg/mL	0.256
S. aureus DSM 20231 [2], first compound 0.012 µg/mL, partner 0.625 µg/mL	0.632
S. aureus DSM 20231 [2], first compound 0.012 µg/mL, partner 1.25 µg/mL	0.671
S. aureus DSM 20231 [2], first compound 0.012 µg/mL, partner 2.5 µg/mL	0.54
S. aureus DSM 20231 [2], first compound 0.024 µg/mL, partner 0.625 µg/mL	0.346
S. aureus DSM 20231 [2], first compound 0.024 µg/mL, partner 1.25 µg/mL	0.358
S. aureus DSM 20231 [2], first compound 0.048 µg/mL, partner 0.625 µg/mL	0.135
S. aureus DSM 20231 [2], first compound 0.048 µg/mL, partner 1.25 µg/mL	0.1
S. aureus DSM 20231 [2], first compound 0.048 µg/mL, partner 2.5 µg/mL	0.0901
S. pneumoniae D39V, first compound 0.012 µg/mL, partner 0.25 µg/mL	0.829
S. pneumoniae D39V, first compound 0.012 µg/mL, partner 0.5 µg/mL	0.797
S. pneumoniae D39V, first compound 0.012 µg/mL, partner 1 µg/mL	0.714
S. pneumoniae D39V, first compound 0.024 µg/mL, partner 0.25 µg/mL	0.512
S. pneumoniae D39V, first compound 0.024 µg/mL, partner 0.5 µg/mL	0.458
S. pneumoniae D39V, first compound 0.024 µg/mL, partner 1 µg/mL	0.451
S. pneumoniae D39V, first compound 0.048 µg/mL, partner 0.25 µg/mL	0.175
S. pneumoniae D39V, first compound 0.048 µg/mL, partner 0.5 µg/mL	0.221
S. pneumoniae D39V, first compound 0.048 µg/mL, partner 1 µg/mL	0.179
S. pneumoniae D39V, first compound 0.375 µg/mL, partner 0.25 µg/mL	0.0266
S. pneumoniae D39V, first compound 0.375 µg/mL, partner 0.5 µg/mL	0.016
S. pneumoniae D39V, first compound 0.375 µg/mL, partner 1 µg/mL	0.0403
S. pneumoniae D39V, first compound 0.75 µg/mL, partner 0.25 µg/mL	0.031
S. pneumoniae D39V, first compound 0.75 µg/mL, partner 0.5 µg/mL	0.0286
S. pneumoniae D39V, first compound 0.75 µg/mL, partner 1 µg/mL	0.0402
S. pneumoniae D39V, first compound 1.5 µg/mL, partner 0.25 µg/mL	0.0296
S. pneumoniae D39V, first compound 1.5 µg/mL, partner 0.5 µg/mL	0.0259
S. pneumoniae D39V, first compound 1.5 µg/mL, partner 1 µg/mL	0.052

S. aureus DSM 20231 [2], first compound 0.006 µg/mL, one replicate
Settings	fitness
partner 0.625 µg/mL	0.719
partner 1.25 µg/mL	0.685
partner 2.5 µg/mL	0.64
